Key:
Assay in all cases: relative viability (nuclei count vs DMSO), 5 days (fraction); higher = more cells survive
[1] = compound: CC1CC(=O)N(C2=CN=C(N=C2N1C3CCCC3)NC4=C(C=C(C=C4)C(=O)NC5CCN(CC5)C)OC)C [NPK76-II-72-1] + CC(=O)c1c(C)c2cnc(Nc3ccc(N4CCNCC4)cn3)nc2n(C2CCCC2)c1=O [Palbociclib] (partner 0.5 µM)
How it was run: (§1)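 Each reported value is a median over duplicate plates. It expresses relative viability: treated-well nuclei count divided by vehicle-well nuclei count. Lung cancer cell lines in 1536-well plates were dosed by pin tool a day after seeding, alone with one drug or with a fixed anchor-drug dose plus five library-drug doses (not always all listed) in √10 steps, and nuclei were counted after 5 days.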

BI-2536 + Palbociclib = compound: CC[C@@H]1C(=O)N(C)c2cnc(Nc3ccc(C(=O)NC4CCN(C)CC4)cc3OC)nc2N1C1CCCC1 [BI-2536] + CC(=O)c1c(C)c2cnc(Nc3ccc(N4CCNCC4)cn3)nc2n(C2CCCC2)c1=O [Palbociclib] (partner 0.5 µM)
How it was run: as §1

[2] = compound: CC1CC(=O)N(C2=CN=C(N=C2N1C3CCCC3)NC4=C(C=C(C=C4)C(=O)NC5CCN(CC5)C)OC)C [NPK76-II-72-1] + CCNC(=O)c1noc(-c2cc(C(C)C)c(O)cc2O)c1-c1ccc(CN2CCOCC2)cc1 [Luminespib] (partner 0.01 µM)
How it was run: as §1

NPK76-II-72-1 + AZD7762 = compound: CC1CC(=O)N(C2=CN=C(N=C2N1C3CCCC3)NC4=C(C=C(C=C4)C(=O)NC5CCN(CC5)C)OC)C [NPK76-II-72-1] + NC(=O)Nc1cc(-c2cccc(F)c2)sc1C(=O)N[C@H]1CCCNC1 [AZD7762] (partner 0.2 µM)
How it was run: as §1

Row | Cell Line | relative viability ([1]; first compound 0.01 µM) | relative viability ([1]; first compound 0.03162 µM) | relative viability ([1]; first compound 0.1 µM) | relative viability ([1]; first compound 0.3162 µM) | relative viability ([1]; first compound 1 µM) | relative viability (BI-2536 + Palbociclib; first compound 0.01 µM) | relative viability (BI-2536 + Palbociclib; first compound 0.03162 µM) | relative viability (BI-2536 + Palbociclib; first compound 0.1 µM) | relative viability (BI-2536 + Palbociclib; first compound 0.3162 µM) | relative viability (BI-2536 + Palbociclib; first compound 1 µM) | relative viability ([2]; first compound 0.01 µM) | relative viability ([2]; first compound 0.03162 µM) | relative viability ([2]; first compound 0.1 µM) | relative viability ([2]; first compound 0.3162 µM) | relative viability ([2]; first compound 1 µM) | relative viability (NPK76-II-72-1 + AZD7762; first compound 0.01 µM) | relative viability (NPK76-II-72-1 + AZD7762; first compound 0.03162 µM) | relative viability (NPK76-II-72-1 + AZD7762; first compound 0.1 µM) | relative viability (NPK76-II-72-1 + AZD7762; first compound 0.3162 µM) | relative viability (NPK76-II-72-1 + AZD7762; first compound 1 µM)
1 | SK-LU-1 | 0.374 | 0.374 | 0.371 | 0.35 | 0.417 | 0.328 | 0.419 | 0.323 | 0.202 | 0.221 | 0.181 | 0.206 | 0.213 | 0.196 | 0.209 | – | – | – | – | –
2 | COR-L 105 | 0.389 | 0.417 | 0.379 | 0.439 | 0.469 | 0.422 | 0.392 | 0.353 | 0.297 | 0.351 | 0.782 | 0.642 | 0.934 | 0.508 | 0.704 | – | – | – | – | –
3 | HCC-366 | 0.386 | 0.438 | 0.386 | 0.363 | 0.458 | 0.364 | 0.389 | 0.225 | 0.0306 | 0.0265 | – | – | – | – | – | 0.233 | 0.388 | 0.375 | 0.246 | 0.468
4 | NCI-H596 | – | – | – | – | – | – | – | – | – | – | 0.871 | 1.18 | 0.975 | 1.03 | 1.12 | 1.13 | 1.12 | 1.27 | 1.15 | 1.1
5 | NCI-H2228 | 0.759 | 0.912 | 0.729 | 0.6 | 0.747 | 0.749 | 0.618 | 0.232 | 0.157 | 0.111 | 0.177 | 0.143 | 0.174 | 0.133 | 0.166 | – | – | – | – | –
6 | SK-MES-1 | 0.325 | 0.342 | 0.26 | 0.313 | 0.385 | 0.345 | 0.301 | 0.187 | 0.222 | 0.208 | 0.827 | 0.79 | 0.646 | 0.688 | 0.857 | – | – | – | – | –
7 | SW 1573 | 0.35 | 0.486 | 0.399 | 0.371 | 0.387 | 0.347 | 0.237 | 0.172 | 0.116 | 0.0925 | 0.333 | 0.218 | 0.278 | 0.383 | 0.21 | – | – | – | – | –
8 | NCI-H661 | 0.424 | 0.37 | 0.418 | 0.346 | 0.435 | 0.403 | 0.372 | 0.331 | 0.209 | 0.225 | 0.964 | 0.943 | 0.892 | 0.906 | 0.933 | – | – | – | – | –
9 | NCI-H520 | 0.235 | 0.24 | 0.267 | 0.26 | 0.247 | 0.225 | 0.216 | 0.182 | 0.178 | 0.178 | 0.206 | 0.24 | 0.285 | 0.181 | 0.245 | – | – | – | – | –
10 | NCI-H2023 | 0.365 | 0.385 | 0.343 | 0.341 | 0.439 | 0.382 | 0.348 | 0.168 | 0.102 | 0.0824 | 0.766 | 1.03 | 0.871 | 0.594 | 0.888 | – | – | – | – | –
11 | NCI-H2009 | 0.178 | 0.195 | 0.213 | 0.262 | 0.2 | 0.195 | 0.171 | 0.119 | 0.142 | 0.0906 | 0.976 | 1.1 | 1.01 | 1.07 | 1.04 | – | – | – | – | –

Source: the supplement of paper PMC10307832
